Results: patent publication US20250057963A1, “DISCOVERY OF PIPERLONGUMINE AS A NOVEL E3 LIGASE LIGAND” (University of Florida Research Foundation, Incorporated, priority 2021, published 2025)
Entries after “also recorded” stand apart in the source; their conditions may differ.

What was measured:
[1] = biological target: T1, CDK9 (Homo sapiens, UniProt P50750); assay: CDK9 degradation in MOLT4 cells (immunoblot); type: cell-based; parameters: endogenous in cells; host or cells: MOLT4, 293T, K562, NCI-H1299, LNCaP; conditions: 6 h treatment
Description: All the cell lines were maintained in a humidified incubator at 37° C. and 5% CO2.
Data analysis was performed using GraphPad Prism software (version 9) unless indicated otherwise. All graphs presented represent the mean±standard deviation of the mean (SD) unless otherwise stated.
Target sequence in this assay (P50750 whole entry): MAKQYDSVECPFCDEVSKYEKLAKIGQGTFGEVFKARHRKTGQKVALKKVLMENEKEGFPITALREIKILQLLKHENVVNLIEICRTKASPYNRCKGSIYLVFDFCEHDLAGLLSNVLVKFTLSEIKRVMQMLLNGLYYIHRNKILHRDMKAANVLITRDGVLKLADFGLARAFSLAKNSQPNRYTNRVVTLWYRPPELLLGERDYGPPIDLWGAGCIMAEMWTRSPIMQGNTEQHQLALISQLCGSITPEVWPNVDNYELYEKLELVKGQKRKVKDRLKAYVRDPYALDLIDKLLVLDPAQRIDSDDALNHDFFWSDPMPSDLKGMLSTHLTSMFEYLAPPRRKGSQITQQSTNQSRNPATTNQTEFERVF

[2] = biological target: T1, CDK9; assay: TMT-based global proteomics in MOLT4 cells; type: cell-based; parameters: endogenous in cells; host or cells: MOLT4; conditions: 0.1 μM 955 for 1 h and 6 h, 1 μM SNS-032 for 6 h
From the text: Sample Preparation and LC-MS/MS analysis. Total protein from cell pellets was reduced, alkylated, and purified by chloroform/methanol extraction prior to digestion with sequencing grade modified porcine trypsin (Cat. No. V5111, Promega). Tryptic peptides were labeled using tandem mass tag isobaric labeling reagents (Cat. No. A34808, ThermoFisher) following the manufacturer's instructions and combined into one 11-plex sample group. The labeled peptide multiplex was separated into 46 fractions on a 100×1.0 mm Acquity BEH C18 column (Waters) using an UltiMate 3000 UHPLC system (Thermo) with a 50 min gradient from 99:1 to 60:40 bufferA:B (Buffer A: 0.1% formic acid, 0.5% acetonitrile; Buffer B: 0.1% formic acid, 99.9% acetonitrile. Both buffers adjusted to pH 10 with ammonium hydroxide for offline separation) ratio under basic pH conditions, and then consolidated into 18 super-fractions. […]
Data processing and analysis. Proteins were identified and MS3 reporter ions quantified using MaxQuant (version 2.0.3.0; Max Planck Institute) against the Homo sapiens UniprotKB database (March 2021) with a parent ion tolerance of 3 ppm, a fragment ion tolerance of 0.5 Da, and a reporter ion tolerance of 0.003 Da. Scaffold Q+S (Proteome Software) was used to verify MS/MS based peptide and protein identifications (protein identifications were accepted if they could be established with less than 1.0% false discovery and contained at least 2 identified peptides; protein probabilities were assigned by the Protein Prophet algorithm (Nesvizhskii et al., 2003) and to perform reporter ion-based statistical analysis. Protein TMT MS3 reporter ion intensity values were assessed for quality using ProteiNorm for a systematic evaluation of normalization methods (Graw et al., 2020). Cyclic loess normalization (Ritchie et al., 2015) was utilized since it had the highest intragroup correlation and the lowest variance amongst the samples. […]
Target sequence in this assay (P50750 whole entry): as above

[3] = biological target: T1, CDK9; conditions: Table 1; b281 prints these figures as IC50; cited from earlier work
Target sequence in this assay (P50750 whole entry, species assumed): as the sequence (P50750 whole entry) above
Target sequence in this assay (O60563 whole entry partner, species assumed): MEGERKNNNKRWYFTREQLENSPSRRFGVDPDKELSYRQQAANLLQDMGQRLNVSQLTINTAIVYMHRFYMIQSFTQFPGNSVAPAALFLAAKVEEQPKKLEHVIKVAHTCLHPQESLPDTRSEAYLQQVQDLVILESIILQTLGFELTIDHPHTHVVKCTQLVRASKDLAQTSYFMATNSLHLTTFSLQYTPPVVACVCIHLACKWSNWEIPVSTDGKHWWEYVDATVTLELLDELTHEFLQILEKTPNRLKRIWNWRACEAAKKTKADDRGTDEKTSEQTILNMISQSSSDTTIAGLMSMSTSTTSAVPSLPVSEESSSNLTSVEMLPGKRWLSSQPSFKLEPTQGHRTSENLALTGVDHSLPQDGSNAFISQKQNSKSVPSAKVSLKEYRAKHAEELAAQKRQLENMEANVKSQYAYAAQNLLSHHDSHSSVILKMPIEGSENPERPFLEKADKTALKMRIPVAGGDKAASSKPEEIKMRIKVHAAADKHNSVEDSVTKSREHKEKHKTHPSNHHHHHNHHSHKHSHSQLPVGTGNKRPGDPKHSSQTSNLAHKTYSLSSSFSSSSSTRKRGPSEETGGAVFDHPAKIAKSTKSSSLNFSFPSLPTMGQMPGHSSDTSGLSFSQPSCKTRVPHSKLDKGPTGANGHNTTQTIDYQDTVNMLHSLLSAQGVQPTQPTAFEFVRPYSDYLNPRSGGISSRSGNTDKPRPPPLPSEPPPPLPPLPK

[4] = biological target: T2, CDK10 (Homo sapiens, UniProt Q15131); conditions: b290: Kinativ screening in MOLT4 lysates (Olson et al., 2018); cited from earlier work
T2 construct: endogenous in cells; host or cells: MOLT4
T2 sequence (Q15131 whole entry): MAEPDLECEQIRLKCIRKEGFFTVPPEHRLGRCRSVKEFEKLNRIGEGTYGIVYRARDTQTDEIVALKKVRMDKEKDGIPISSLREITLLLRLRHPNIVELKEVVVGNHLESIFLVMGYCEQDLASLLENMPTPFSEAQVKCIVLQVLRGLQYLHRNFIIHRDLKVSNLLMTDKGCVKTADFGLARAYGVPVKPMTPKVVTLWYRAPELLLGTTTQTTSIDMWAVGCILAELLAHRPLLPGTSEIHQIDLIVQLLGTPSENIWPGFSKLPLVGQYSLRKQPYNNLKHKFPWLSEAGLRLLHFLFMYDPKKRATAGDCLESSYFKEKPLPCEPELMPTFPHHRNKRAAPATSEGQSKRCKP

[5] = tested on: LNCaP prostate cancer cells and H1299 lung cancer cells; assay: Cell killing (MTS) with or without KEAP1 siRNA knockdown; type: cell-based, Human; conditions: KEAP1 siRNA vs control siRNA 48 h; compound 0.1 mM (LNCaP) or 0.3 mM (H1299) for 24 h
Description: FIGS. 19A to 19B show percentages of cell killing in LNCaP (FIG. 19A) and H1299 (FIG. 19B) cells with or without KEAP1 knockdown. LNCaP and H1299 cells were treated with control siRNA or siRNAs targeting KEAP1 for 48 h and then reseeded and treated with indicated compound (0.1 mM for LNCaP cells and 0.3 mM for H1299 cells) for 24 h. The cell viability was then determined by MTS assay. The data are presented as mean±SD from three replicate cell cultures in a representative experiment. Data are representative of two independent experiments. Statistical significance was calculated with unpaired two-tailed Student's t-tests. **P<0.01; ***P<0.001; NS: not significant.
Viability (MTS) assays in various cancer cells followed the methods described in our previous report (Khan et al., 2019). The data were expressed as average % cell viability and fitted in non-linear regression curves using GraphPad Prism 9 (GraphPad Software, La Jolla, CA, USA).

[6] = tested on: LNCaP, 22RV1, PC3 and DU145 prostate cancer cell lines; assay: Viability (MTS) assay in prostate cancer cell lines; type: cell-based, Human; conditions: Homo sapiens, 72 h, read-out: EC50, anti-proliferation
Description: All the cell lines were maintained in a humidified incubator at 37° C. and 5% CO2. […] The data were expressed as average % cell viability and fitted in non-linear regression curves using GraphPad Prism 9 (GraphPad Software, La Jolla, CA, USA).

[7] = biological target: T1, CDK9; conditions: Olson et al., 2018; cited from earlier work
Target sequence in this assay (P50750 whole entry, species assumed): as the sequence (P50750 whole entry) above

SMILES | CDK9 degradation with short-term treatment [1] | CDK9 protein level (global proteome) [2] | Binding Affinity, CDK9 [3] | binding of SNS-032 to CDK10 [4] | effect of KEAP1 knockdown on cytotoxicity of the compound [5] | EC50 [6] [µM] | degradation selectivity among SNS-032 targets [7]
CC(C)(C)c1cnc(CSc2cnc(NC(=O)C3CCNCC3)s2)o1 [SNS-032, N-(5-(((5-(tert-butyl)oxazol-2-yl)methyl)thio)thiazol-2-yl)piperidine-4-carboxamide, reference compound] | no degradation effect; also recorded: could not | no significant effect on CDK9 | CDK9: 4 nM | very low binding affinity; also recorded: moderate binding | no significant effect | > 0.1 | 
CC(C)(C)c1cnc(CSc2cnc(NC(=O)C3CCN(CC(=O)NCCOCCOCCOCCNc4cccc5c4C(=O)N(C4CCC(=O)NC4=O)C5=O)CC3)s2)o1 (stereo not shown) [THAL-SNS-032] |  |  |  |  |  |  | could only degrade CDK9 but not other known SNS-032 targets
